The values that follow come from PubChem BioAssay AID2743 (NMMLSC, 2010).

Active and inactive are the calls of the source.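 How the source made its calls: active means fitted half-maximal concentration for change in GFP expression of 33 µM or less; inactive means the rest.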

This assay can be described thus: concentration-dependent AGP1-GFP change, TOR pathway – cell-based, flow cytometry, S. cerevisiae, MLPCN hits, dose response (AID 2743). Particulars: S. cerevisiae AGP1-GFP strain, flow cytometry GFP, 3 h; at 33 µM (top of the series).
With `CC(=O)n1cc(C(C[N+](=O)[O-])SCCN)c2ccccc21` (stereo not drawn), the GFP fluorescence (kMESF) was 28.8 kMESF (inactive).

`N/C(=N\OC(=O)c1ccccc1Cl)c1ccc(Cl)cc1`: the GFP fluorescence (kMESF) is 25.7 kMESF (inactive).

Take `CC(=O)NN1C(=O)/C(=C/c2ccc(Br)o2)SC1=S`: the GFP fluorescence (kMESF) was 40.5 kMESF (inactive).

`Nc1ccc(Br)c2c1C(=O)c1ccccc1C2=O`: the GFP fluorescence (kMESF) is 27.1 kMESF (inactive).

`CS(=O)(=O)N1N=C(c2ccccc2)CC1c1ccc2c(c1)OCO2` (stereo not drawn): the GFP fluorescence (kMESF) was 126 kMESF (inactive).

Turning to `CCOc1ccc(C(C)=O)cc1N1C(=O)C2C3C=CC(O3)C2C1=O` (stereo not drawn), the GFP fluorescence (kMESF) was 40.5 kMESF (inactive).

Turning to `O=C(/C=C/c1cc(Br)ccc1O)c1ccco1`, the GFP fluorescence (kMESF) is 40.2 kMESF (inactive).

As to `O=C1C(=O)c2ccccc2-c2ccccc21`, the GFP fluorescence (kMESF) was 17.5 kMESF (inactive).

`O=c1c2cc(Br)ccc2nc(-c2ccc([N+](=O)[O-])cc2)n1O`: the GFP fluorescence (kMESF) was 29.6 kMESF (inactive).

For `CCn1c(=O)c(C(=O)Nc2nc3ccccc3[nH]2)c(O)c2ccccc21`, the GFP fluorescence (kMESF) was 12.8 kMESF (inactive).

Regarding `O=C(/C=C/c1ccccn1)c1cc(Br)ccc1O`, the GFP fluorescence (kMESF) was 37.3 kMESF (inactive).

As to `CN(C)c1ccc(/C=C/c2cc[n+](C)cc2)cc1`, the GFP fluorescence (kMESF) is 30 kMESF (inactive).

Consider `Cc1ccc(NC(=O)c2cc(N3C(=O)C=CC3=O)ccc2Cl)cc1C`, for which the GFP fluorescence (kMESF) is 23.9 kMESF (inactive).

For `Cc1ccc2[nH]c(C)c(/C=C/c3cc[n+](C)cc3)c2c1`, the GFP fluorescence (kMESF) is 38.4 kMESF (inactive).

As for `COc1cc(NC(=O)c2cccc(C)c2)ccc1NC(=O)c1cc2ccccc2o1`, the GFP fluorescence (kMESF) was 44.2 kMESF (inactive).

Turning to `Cc1[nH]n(-c2ncc(-c3ccccc3)s2)c(=O)c1C(c1ccc(Cl)cc1)C(C#N)C#N` (stereo not drawn), the GFP fluorescence (kMESF) is 40.6 kMESF (inactive).

Regarding `O=C(CCc1ccccc1)NNC(=S)NC(=O)c1ccccc1`, the GFP fluorescence (kMESF) was 50.8 kMESF (inactive).

On to `N/C(Cc1ccc(Cl)cc1Cl)=N\OC(=O)c1ccccc1`, for which the GFP fluorescence (kMESF) is 29.1 kMESF (inactive).

With `Nc1c(C(=O)c2cccs2)sc2nsc(SCCN3CCCCC3)c12`, the GFP fluorescence (kMESF) is 35.6 kMESF (inactive).

As for `O=C1NC(=O)N(CCc2ccc(F)cc2)C(=O)/C1=C/c1cccs1`, the GFP fluorescence (kMESF) was 39.1 kMESF (inactive).

On to `N/C(=N\OC(=O)c1ccc(Cl)cc1Cl)c1ccccc1`, for which the GFP fluorescence (kMESF) is 27.3 kMESF (inactive).

Turning to `Oc1ccc(Br)cc1/C=N/Nc1ccccn1`, the GFP fluorescence (kMESF) was 36.6 kMESF (inactive).

For `O=S(=O)(CCN(CCS(=O)(=O)C(F)(F)F)CC1CCCO1)C(F)(F)F` (stereo not drawn), the GFP fluorescence (kMESF) is 35.8 kMESF (inactive).

For `COc1ccc(N2C(=O)/C(=C/c3cccs3)C(=O)NC2=S)cc1`, the GFP fluorescence (kMESF) was 27.3 kMESF (inactive).

`Cc1ccc(N2C(=O)C(Cl)=C(Nc3c(C)n(C)n(-c4ccccc4)c3=O)C2=O)cc1`: the GFP fluorescence (kMESF) was 35 kMESF (inactive).

Turning to `O=C(NC(=S)NNC(=O)c1ccc(Cl)cc1Cl)c1cccnc1`, the GFP fluorescence (kMESF) was 26.1 kMESF (inactive).

As to `Cc1ccc(/C=C/C(=O)c2ccc([N+](=O)[O-])o2)cc1`, the GFP fluorescence (kMESF) was 42.9 kMESF (inactive).

Regarding `COc1cccc(/C=C2\C(=O)N(c3cccc(C)c3)C(=O)c3ccccc32)c1`, the GFP fluorescence (kMESF) is 45.3 kMESF (inactive).

Turning to `Cc1ccc2nc(/C(C#N)=C/c3ccc(O)c(O)c3)[nH]c2c1`, the GFP fluorescence (kMESF) is 41.6 kMESF (inactive).

For the compound `Oc1cc(-c2ccc(N3CCCCC3)nc2)cc2cccnc12`, the GFP fluorescence (kMESF) was 31.5 kMESF (inactive).

Turning to `COc1cc(/C=C2\CC/C(=C\c3cc(OC)c(O)c(OC)c3)C2=O)cc(OC)c1O`, the GFP fluorescence (kMESF) is 34.6 kMESF (inactive).

Regarding `O=C(Nc1cccc(-c2csc(Nc3ccccc3)n2)c1)c1ccccc1`, the GFP fluorescence (kMESF) is 31 kMESF (inactive).

For the compound `CC(=O)[C@]1(O)Cc2c(O)c3c(c(O)c2[C@@H](O[C@H]2C[C@H](N)[C@H](O)[C@H](C)O2)C1)C(=O)c1ccccc1C3=O`, the GFP fluorescence (kMESF) was 33.4 kMESF (inactive).

Take `CCOC(=O)CS(=O)(=O)c1nc(-c2ccc(F)cc2)cc(C(F)(F)F)n1`: the GFP fluorescence (kMESF) is 50.7 kMESF (inactive).

As to `O=S1(=O)C=C(Sc2nc3ccccc3s2)c2ccccc21`, the GFP fluorescence (kMESF) is 34.3 kMESF (inactive).

Turning to `CC(Oc1ccc(Cl)cc1)C(=O)NNC(=S)NC(=O)c1ccco1` (stereo not drawn), the GFP fluorescence (kMESF) was 34.2 kMESF (inactive).

Turning to `O=C1N(c2ccccc2C(F)(F)F)O[C@@]1(c1ccccc1)C1CCCC1`, the GFP fluorescence (kMESF) was 38.4 kMESF (inactive).

Take `COc1ccc([C@]2(C(C)C)ON(c3ccccc3C(F)(F)F)C2=O)cc1`: the GFP fluorescence (kMESF) is 38.8 kMESF (inactive).

Take `CCCOc1ccc(C(=O)NNC(=S)NC(=O)c2ccccc2)cc1`: the GFP fluorescence (kMESF) is 45.1 kMESF (inactive).

In the case of `CCc1ccc(C(=O)/C=C/c2ccc([N+](=O)[O-])o2)cc1`, the GFP fluorescence (kMESF) was 49.5 kMESF (inactive).

With `Cc1ccc(C(=O)O)cc1N=Cc1cc(Br)cc(Br)c1O`, the GFP fluorescence (kMESF) is 27.3 kMESF (inactive).

As for `COc1ccc(C(c2c(C)[nH]n(C(N)=S)c2=O)C(C#N)C#N)cc1` (stereo not drawn), the GFP fluorescence (kMESF) is 44.2 kMESF (inactive).

`CCN(CC(=O)Nc1cc(S(=O)(=O)N2CCOCC2)ccc1Cl)Cc1ccccc1`: the GFP fluorescence (kMESF) was 37.6 kMESF (inactive).

For the compound `Cc1ccccc1N=Nc1ccc(O)c2ncccc12`, the GFP fluorescence (kMESF) was 31.9 kMESF (inactive).

For the compound `COc1ccc(N2C(=O)CC(Sc3ncn[nH]3)C2=O)c(OC)c1` (stereo not drawn), the GFP fluorescence (kMESF) is 36.2 kMESF (inactive).

Consider `O=[N+]([O-])c1cc(S(=O)(=O)C(F)(F)F)ccc1Sc1nc2ccccc2s1`, for which the GFP fluorescence (kMESF) was 39.1 kMESF (inactive).

Turning to `O=C1/C(=C\c2ccc(O)c(O)c2)SC(=S)N1Cc1ccccc1`, the GFP fluorescence (kMESF) is 10.8 kMESF (inactive).

Consider `COc1ccccc1C(=O)NNC(=S)NC(=O)c1ccco1`, for which the GFP fluorescence (kMESF) is 38.7 kMESF (inactive).

In the case of `O=C(O)c1cc[c]([Hg][Cl])cc1`, the GFP fluorescence (kMESF) is 32.1 kMESF (inactive).

Turning to `Cc1ccccc1N1C(=O)C(Cl)=C(N2CCN(c3ccccc3)CC2)C1=O`, the GFP fluorescence (kMESF) is 41.1 kMESF (inactive).

Regarding `O=C(Nc1ccc(NC(=O)c2cc3ccccc3o2)cc1)c1ccco1`, the GFP fluorescence (kMESF) is 44.8 kMESF (inactive).

Regarding `O=C(c1ccc(C(=O)N2CCCc3ccccc32)s1)N1CCCc2ccccc21`, the GFP fluorescence (kMESF) is 38.6 kMESF (inactive).

For `COc1ccc(N2C(=O)C(Cl)=C(Oc3cccc(OC)c3)C2=O)cc1`, the GFP fluorescence (kMESF) was 38.8 kMESF (inactive).

Regarding `Nc1ccc2ccc3cccc[n+]3c2c1`, the GFP fluorescence (kMESF) is 42.9 kMESF (inactive).

For the compound `Nc1ccccc1C#CC(=O)c1ccccc1`, the GFP fluorescence (kMESF) is 31.7 kMESF (inactive).

For the compound `Cc1ccc(/C=N/Nc2ncc(Cl)cc2Cl)s1`, the GFP fluorescence (kMESF) was 35.6 kMESF (inactive).

For `CCCc1nnc(NC(=O)c2c(O)c3cccc4c3n(c2=O)CCC4)s1`, the GFP fluorescence (kMESF) is 2.53 kMESF (inactive).

As for `O=C1N(c2ccccc2C(F)(F)F)O[C@]1(c1ccccc1)C1CCCC1`, the GFP fluorescence (kMESF) was 32.8 kMESF (inactive).
